The supplement of paper PMC5908809

Experiments:
SNK-6 (IL-2 2.5 ng/mL) [1] = assay: percent inhibition of viability; higher = more inhibition; details: 72 h
NKL (IL-2 2.5 ng/mL) [2] = assay: as above; details: 72 h
YT (IL-2 2.5 ng/mL) [3] = assay: as above; details: 72 h
[4] = test system: normal primary NK cells, pool 1 (3 donors), resting (IL-2 0 ng/mL); assay: as above; details: 72 h
NK-YS (IL-2 2.5 ng/mL) [5] = assay: as above; details: 72 h
KHYG-1 (IL-2 2.5 ng/mL) [6] = assay: as above; details: 72 h
NK-92 (IL-2 2.5 ng/mL) [7] = assay: as above; details: 72 h
KAI3 (IL-2 2.5 ng/mL) [8] = assay: as above; details: 72 h
[9] = test system: normal primary NK cells, pool 2 (3 donors) (IL-2 2.5 ng/mL); assay: as above; details: 72 h
[10] = test system: normal primary NK cells, pool 3 (3 donors) (IL-2 2.5 ng/mL); assay: as above; details: 72 h
DERL-7 (IL-2 2.5 ng/mL) [11] = assay: as above; details: 72 h
[12] = test system: normal primary NK cells, pool 1 (3 donors) (IL-2 2.5 ng/mL); assay: as above; details: 72 h
IMC-1 (IL-2 20 ng/mL) [13] = assay: as above; details: 72 h
[14] = test system: normal NK cells expanded with K562-aAPC; assay: drug sensitivity score (DSS) (DSS units); higher = more sensitive; extreme values may be limits of the assay; details: 72 h; IL-2 2.5 ng/mL
Procedure: (§1)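 Drug sensitivity and resistance testing on K562-aAPC-expanded normal NK cells: 5 concentrations (10-fold steps over a 10,000-fold range), 72 h at 37 °C, viability by CellTiter-Glo normalised to DMSO and benzethonium chloride controls; DSS from the fitted curve.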

[15] = test system: normal NK cells expanded with K562-aAPC; assay: percent inhibition of viability; higher = more inhibition; details: 72 h, IL-2 2.5 ng/mL
Procedure: as §1

SNK-6 (IL-2 2.5 ng/mL) [16] = assay: drug sensitivity score (DSS) (DSS units); higher = more sensitive; extreme values may be limits of the assay; details: 72 h
NKL (IL-2 2.5 ng/mL) [17] = assay: as above; details: 72 h
YT (IL-2 2.5 ng/mL) [18] = assay: as above; details: 72 h
[19] = test system: normal primary NK cells, pool 1 (3 donors), resting (IL-2 0 ng/mL); assay: as above; details: 72 h
NK-YS (IL-2 2.5 ng/mL) [20] = assay: as above; details: 72 h
KHYG-1 (IL-2 2.5 ng/mL) [21] = assay: as above; details: 72 h
NK-92 (IL-2 2.5 ng/mL) [22] = assay: as above; details: 72 h
KAI3 (IL-2 2.5 ng/mL) [23] = assay: as above; details: 72 h
[24] = test system: normal primary NK cells, pool 2 (3 donors) (IL-2 2.5 ng/mL); assay: as above; details: 72 h
[25] = test system: normal primary NK cells, pool 3 (3 donors) (IL-2 2.5 ng/mL); assay: as above; details: 72 h
DERL-7 (IL-2 2.5 ng/mL) [26] = assay: as above; details: 72 h
[27] = test system: normal primary NK cells, pool 1 (3 donors) (IL-2 2.5 ng/mL); assay: as above; details: 72 h
IMC-1 (IL-2 20 ng/mL) [28] = assay: as above; details: 72 h

CS(=O)(=O)CCNCc1ccc(-c2ccc3ncnc(Nc4ccc(OCc5cccc(F)c5)c(Cl)c4)c3c2)o1 [Lapatinib] (max concentration tested 1000 nM)
percent inhibition of viability [%]
Details | 0.1 nM | 1 nM | 10 nM | 100 nM | 1000 nM
DERL-7 (IL-2 2.5 ng/mL) [11] | 4.2 | 1.17 | 2.53 | -0.89 | 9.64
IMC-1 (IL-2 20 ng/mL) [13] | -4.47 | -0.19 | -1 | 2.17 | 9.49
KAI3 (IL-2 2.5 ng/mL) [8] | -4.84 | -7.01 | -5.48 | -1.85 | 11.8
KHYG-1 (IL-2 2.5 ng/mL) [6] | -0.63 | -4.12 | -1.74 | 0.27 | 9.49
NK-92 (IL-2 2.5 ng/mL) [7] | -9.88 | -2.81 | 5.1 | 30.6 | 28.1
NK-YS (IL-2 2.5 ng/mL) [5] | -7.32 | -8.47 | -3.59 | -5.11 | 5.83
NKL (IL-2 2.5 ng/mL) [2] | -3.26 | -0.98 | 3.19 | 8.28 | 14.2
SNK-6 (IL-2 2.5 ng/mL) [1] | -20.3 | -7.47 | -17 | -15.2 | -16.8
YT (IL-2 2.5 ng/mL) [3] | -1.2 | -2.12 | -1.08 | 6.88 | 14.2
[4] | -12 | 4 | -0.24 | 6.97 | 30.1
[9] | -7.46 | 8.95 | 4.77 | 1.81 | 4
[10] | -12.2 | 9.92 | 7.91 | -3.46 | -0.3
[12] | -9.91 | 11.7 | 10.2 | 12.6 | 4.9
[15] | -5.72 | -9.28 | -7.55 | -4.36 | -0.7

Details | drug sensitivity score
DERL-7 (IL-2 2.5 ng/mL) [26] | 0
IMC-1 (IL-2 20 ng/mL) [28] | 0
KAI3 (IL-2 2.5 ng/mL) [23] | 0.01
KHYG-1 (IL-2 2.5 ng/mL) [21] | 0
NK-92 (IL-2 2.5 ng/mL) [22] | 6.01
NK-YS (IL-2 2.5 ng/mL) [20] | 0
NKL (IL-2 2.5 ng/mL) [17] | 0.4
SNK-6 (IL-2 2.5 ng/mL) [16] | 0
YT (IL-2 2.5 ng/mL) [18] | 0.63
[14] | 0
[19] | 2.38
[24] | 0
[25] | 0
[27] | 1.89

COc1cc([C@@H]2c3cc4c(cc3[C@@H](O[C@@H]3O[C@@H]5CO[C@@H](c6cccs6)O[C@H]5[C@H](O)[C@H]3O)[C@H]3COC(=O)[C@H]23)OCO4)cc(OC)c1O [Teniposide] (max concentration tested 10000 nM)
percent inhibition of viability [%]
Details | 1 nM | 10 nM | 100 nM | 1000 nM | 10000 nM
DERL-7 (IL-2 2.5 ng/mL) [11] | 5.54 | 34.5 | 94.9 | 80.3 | 99.3
IMC-1 (IL-2 20 ng/mL) [13] | -1.21 | 18.8 | 95.9 | 99.6 | 99
KAI3 (IL-2 2.5 ng/mL) [8] | -5.63 | 32.8 | 80.1 | 75.3 | 92.2
KHYG-1 (IL-2 2.5 ng/mL) [6] | 1.47 | 13.1 | 91.5 | 102 | 94.4
NK-92 (IL-2 2.5 ng/mL) [7] | -21.1 | 0.94 | 59.8 | 99.7 | 90.3
NK-YS (IL-2 2.5 ng/mL) [5] | 4.54 | 29.4 | 82.5 | 79.9 | 75.7
NKL (IL-2 2.5 ng/mL) [2] | 0.79 | 49.3 | 98.3 | 98.7 | 89.8
SNK-6 (IL-2 2.5 ng/mL) [1] | 5.23 | 16.8 | 78.2 | 95.8 | 94.7
YT (IL-2 2.5 ng/mL) [3] | 0.75 | -4.25 | 36.1 | 95.3 | 91.5
[4] | -23.6 | -9.41 | 27.9 | 90.8 | 91.2
[9] | -11.9 | -5.76 | 2.6 | 48.4 | 93.9
[10] | -13.8 | -4.37 | 3.23 | 36.7 | 97
[12] | 2.23 | -5.23 | 11.2 | 66.3 | 96.6
[15] | -1.49 | 7.42 | 51.3 | 59.8 | 99.4

Details | drug sensitivity score
DERL-7 (IL-2 2.5 ng/mL) [26] | 33.5
IMC-1 (IL-2 20 ng/mL) [28] | 32.6
KAI3 (IL-2 2.5 ng/mL) [23] | 29.9
KHYG-1 (IL-2 2.5 ng/mL) [21] | 30.9
NK-92 (IL-2 2.5 ng/mL) [22] | 25
NK-YS (IL-2 2.5 ng/mL) [20] | 29.3
NKL (IL-2 2.5 ng/mL) [17] | 36.2
SNK-6 (IL-2 2.5 ng/mL) [16] | 28.5
YT (IL-2 2.5 ng/mL) [18] | 22.1
[14] | 18.8
[19] | 20.6
[24] | 11
[25] | 10.1
[27] | 14
